Assay results taken from US20050074408A1, “Keto cannabinoids with therapeutic indications” (University of Connecticut, priority 2002, published 2005).
pKi: −log10 of the molar value. Where two headings read alike, the source gives them in different places.

Columns and labels:
CB1 cannabinoid receptor = target: T1, CB1 cannabinoid receptor (Rattus norvegicus, UniProt P20272); assay: CB1 receptor binding assay ([3H] CP-55,940 displacement, rat forebrain membranes); conditions: 0.8 nM [3H] CP-55,940
T1 construct: membranes were prepared from rat forebrain membranes; from tissue; host or cells: rat forebrain
Procedure: Some of the inventive compounds were tested for CB2 receptor binding affinity and for CB1 receptor affinity (to determine selectivity for the CB2 receptor). As used herein, “binding affinity” is represented by the Ki value which is the inhibition constant correlated with the concentration of an analog required to occupy the 50% of the total number (Bmax) of the receptors. The lower the Ki value the higher the binding affinity. […] For the CB1 receptor binding studies, membranes were prepared from rat forebrain membranes according to the procedure of P. R. Dodd et al, A Rapid Method for Preparing Synaptosomes: Comparison with Alternative Procedures, Brain Res., 107-118 (1981). The binding of the novel analogues to the CB1 cannabinoid receptor was assessed as described in W. A. Devane et al, Determination and Characterization of a Cannabinoid Receptor in a Rat Brain, Mol. Pharmacol., 34, 605-613 (1988) and A. Charalambous et al, 5′-azido Δ^8−THC: A Novel Photoaffinity Label for the Cannabinoid Receptor, J. Med. Chem., 35, 3076-3079 (1992) with the following changes. The above articles are incorporated by reference herein.
(§1) Membranes, previously frozen at −80° C., were thawed on ice. To the stirred suspension was added three volumes of TME (25 mM Tris-HCl buffer, 5 mM MgCl2 and 1 mM EDTA) at a pH 7.4. The suspension was incubated at 4° C. for 30 min. At the end of the incubation, the membranes were pelleted and washed three times with TME.
The treated membranes were subsequently used in the binding assay described below. Approximately 30 μg of membranes were incubated in silanized 96-well microtiter plate with TME containing 0.1% essentially fatty acid-free bovine serum albumin (BSA), 0.8 nM [^3H] CP-55,940, and various concentrations of test materials in a final volume of 200 μL. The assays were incubated for 1 hour at 30° C. and then immediately filtered using Packard Filtermate 196 harvester and Whatman GF/C filterplates and washed with wash buffer (TME) containing 0.5% BSA. Radioactivity was detected using MicroScint 20 scintillation cocktail added directly to the dried filterplates, and the filterplates were counted using a Packard Instruments Top-Count. Nonspecific binding was assessed using 100 nM CP-55,940. Data collected from three independent experiments performed with duplicate determinations was normalized between 100% and 0% specific binding for [^3H] CP-55,940, determined using buffer and 100 nM CP-55,940. The normalized data was analyzed using a 4-parameter nonlinear logistic equation to yield IC50 values. Data from at least two independent experiments performed in duplicate was used to calculate IC50 values which were converted to Ki values using the assumptions of Cheng et al, Relationship Between the Inhibition Constant (Ki) and the concentration of Inhibitor which causes 50% Inhibition (IC50) of an Enzymatic Reaction, Biochem. Pharmacol., 22, 3099-3102, (1973), which is incorporated by reference herein.

CB2 receptor = target: T2, CB2 receptor (Mus musculus, UniProt P47936); assay: CB2 receptor binding assay ([3H] CP-55,940 displacement, mouse spleen membranes)
T2 construct: membranes were prepared from frozen mouse spleen; from tissue; host or cells: mouse spleen
Procedure: as §1
The treated membranes were subsequently used in the binding assay described below. Approximately 30 μg of membranes were incubated in silanized 96-well microtiter plate with TME containing 0.1% essentially fatty acid-free bovine serum albumin (BSA), 0.8 nM [^3H] […] Radioactivity was detected using MicroScint 20 scintillation cocktail added directly to the dried filterplates, and the filterplates were counted using a Packard Instruments Top-Count. […] Data collected from three independent experiments performed with duplicate determinations was normalized between 100% and 0% specific binding for [^3H] […] The normalized data was analyzed using a 4-parameter nonlinear logistic equation to yield IC50 values.
Silanized centrifuge tubes were used throughout to minimize receptor loss due to adsorption. The CB2 binding assay was conducted in the same manner as for the CB1 binding assay. The binding affinities (Ki) were also expressed in nanomoles (nM).

[1] = Fluorescence assay protocol (absorption, excitation and emission scans in MeOH); type: physicochemical
Procedure: The fluorescent properties of some of the inventive compounds were examined using the following fluorescence assay protocol. All samples were processed in the same manner and diluted in JT BAKER PHOTREX Grade MeOH. Cuvettes and flasks were cleaned and rinsed with distilled water then rinsed twice with MeOH. Samples were kept in the freezer prior to testing. NSG Precision Quartz Cuvettes were used for absorption and spectral scans. Samples were diluted with methanol to a final volume of 5 mL. A 100× dilution of the samples in MeOH was performed. Absorption spectra were run using a Beckman DU-40 Spectrophotometer. Guided by absorption spectra, excitation and emission scans were run using an ISA Fluoromax-2 Fluorometer.
500 μL of MeOH was added into sample vial containing about 1 mg of testing compound, and aspirated with pipette to mix. 500 μL sample aliquot was then placed into 5 mL volumetric flask and brought up to volume with MeOH, and 5 mL was used as stock. Serial dilutions in 50 mL volumetric flasks were performed until final concentration of 100× reached. Dilution protocol was repeated for each sample. After dilution, 2.5 mL of sample was placed into a 3 mL Quartz cuvette and the cuvette was placed in ISA Fluoromax-2 Fluorometer. Absorption scan was run in Beckman DU-40 Spectrophotometer. Excitation and emission scans were run and spectral data were collected.

[2] = mouse spleen membranes, [3H] CP-55,940, read-out: CB2 Ki

T1 sequence (P20272 whole entry): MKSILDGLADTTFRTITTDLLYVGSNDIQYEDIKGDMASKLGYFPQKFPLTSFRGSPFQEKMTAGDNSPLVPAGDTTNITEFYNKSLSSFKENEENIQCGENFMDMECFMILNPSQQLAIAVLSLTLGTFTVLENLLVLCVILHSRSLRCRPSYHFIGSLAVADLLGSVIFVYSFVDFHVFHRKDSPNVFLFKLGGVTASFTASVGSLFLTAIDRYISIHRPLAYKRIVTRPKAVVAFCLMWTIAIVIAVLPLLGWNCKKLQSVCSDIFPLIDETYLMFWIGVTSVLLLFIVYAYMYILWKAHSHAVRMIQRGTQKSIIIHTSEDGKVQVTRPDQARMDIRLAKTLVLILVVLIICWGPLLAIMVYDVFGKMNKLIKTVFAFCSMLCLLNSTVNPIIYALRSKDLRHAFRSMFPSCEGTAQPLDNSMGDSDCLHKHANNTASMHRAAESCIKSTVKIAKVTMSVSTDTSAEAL
T2 sequence (P47936 whole entry): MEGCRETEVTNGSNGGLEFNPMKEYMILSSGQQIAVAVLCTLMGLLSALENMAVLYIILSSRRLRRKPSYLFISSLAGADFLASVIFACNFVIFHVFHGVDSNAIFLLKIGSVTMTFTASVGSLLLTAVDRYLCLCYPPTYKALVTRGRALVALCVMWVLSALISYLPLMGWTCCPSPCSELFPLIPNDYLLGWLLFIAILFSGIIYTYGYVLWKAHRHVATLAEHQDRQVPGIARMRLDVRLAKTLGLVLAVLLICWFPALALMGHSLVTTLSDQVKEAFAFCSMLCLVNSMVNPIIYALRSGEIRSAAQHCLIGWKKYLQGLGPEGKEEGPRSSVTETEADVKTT

Structure (SMILES) | pKi (CB1 cannabinoid receptor) | pKi (CB2 receptor; [2]) | Absorbance Peak [1] [nm] | Fluorescence Emission Peak [1] [nm] | Fluorescence Excitation Peak [1] [nm] | Mol Extinction [1] [mol⁻¹ cm⁻¹ L⁻¹] | Stoke's Shift [1] [nm] | pKi (CB2 receptor)
CCCCCCCN(C)c1cc(O)c2c(oc(=O)c3ccc(C)cc32)c1Br [Compound 10] | 8.05 | 9.15 |  |  |  |  |  | 
CCCCCC(C)Oc1cc(O)c2c3c(c(=O)oc2c1)CCC(C)C3 (centres unmarked) [Compound 2] | 6.82 | 7.60 | 320 | 423 | 326 | 13900 | 97 | 
CCCCCCCN(C)c1cc2oc(=O)c3ccc(C)cc3c2c(O)c1Br [Compound 9] | 7.30 | 8.52 |  |  |  |  |  | 
CCCCCCC(C)Oc1cc(O)c2c3c(c(=O)oc2c1)CCC(C)C3 (centres unmarked) [Compound 3] | 7.52 | 8.22 |  |  |  |  |  | 
CCCCCCC(C)Oc1cc(OC(=O)CCCCN2CCOCC2)c2c3c(c(=O)oc2c1)CCC(=O)C3 (centres unmarked) [Compound 20] | 8.22 | 9.22 |  |  |  |  |  | 
CCCCCCCN(C)c1cc(O)c2c3c(c(=O)oc2c1)CCC(C)C3 (centres unmarked) [Compound 6] | 6.91 | 6.89 | 364 | 460 | 367 | 18000 | 93 | 
CCCCCCC(C)(C)c1cc(O)c2c(c1)oc(=O)c1ccccc12 [Compound 47] | 5.32 | 8.18 |  |  |  |  |  | 
CCCCCCCN(C)c1cc(OC)c2c(c1)oc(=O)c1ccc(C)cc12 [Compound 14] | 5.90 | 7.05 | 405 | 465 | 405 | 11400 | 60 | 
CCCCCCCN(C)c1cc(O)cc2oc(=O)c3c(c12)CC(C)CC3 (centres unmarked) [Compound 8] | 5.59 |  |  |  |  |  |  | 6.08
CCCCCCCN(C)c1cc(OC)c2c(c1)oc(=O)c1ccc(C(F)(F)F)cc12 [Compound 12] | 5.20 | 5.83 |  |  |  |  |  | 
CCCCCCC(C)Oc1cc(O)c2c3c(c(=O)oc2c1)CCC(=O)C3 (centres unmarked) [Compound 17] | 6.52 |  |  |  |  |  |  | 9.40
CCCCCCC(C)(C)c1cc(O)c2c(c1)oc(=O)c1cc(O)c(O)cc12 [Compound 48] | 5.71 | 7.00 |  |  |  |  |  | 
CCCCCCN(C)c1cc(O)c2c3c(c(=O)oc2c1)CCC(C)C3 (centres unmarked) [Compound 5] | 5.70 | 5.78 | 364 | 460 | 368 | 18600 | 92 | 
CCCCCCCC(C)(C)c1cc(OC)c2c3c(c(=O)oc2c1)CCC(=O)C3 [Compound 19] | 7.40 | 9.00 |  |  |  |  |  | 
CCCCCCCN(C)c1cc(O)c2c(c1)oc(=O)c1ccc(O)cc12 [Compound 15] | 6.00 | 7.64 | 318 | 502 | 320 | 23400 | 182 | 
CCCCCCC(C)(C)c1cc(OC)c2c(c1)oc(=O)c1ccncc12 [Compound 49] | 5.43 | 7.45 |  |  |  |  |  | 
CCCCCCC(C)Oc1cc(OC)c2c3c(c(=O)oc2c1)CCC(=O)C3 (centres unmarked) [Compound 18] | 5.07 | 6.45 |  |  |  |  |  | 
CCCCCCCN(C)c1cc(O)c2c(c1)oc(=O)c1ccc(OC)cc12 [Compound 16] | 5.88 |  | 317 | 498 | 321 | 21800 | 177 | 6.83
CCCCCCCN(C)c1cc(O)c2c(c1)oc(=O)c1ccc(C(F)(F)F)cc12 [Compound 11] | 5.18 | 5.77 |  |  |  |  |  | 
CCCCCCCN(C)c1cc(O)c2c(c1)oc(=O)c1ccc(C)cc12 [Compound 13] | 6.85 | 7.80 | 316 | 519 | 319 | 22700 | 200 | 
CCCCCCc1cc2c3c(c(=O)oc2cc1O)CCC(C)C3 (centres unmarked) [Compound 1] | 5.06 | 5.25 |  |  |  |  |  | 
CCCCCCCC(C)(C)c1cc(OC)c2c3c(c(=O)oc2c1)CCC(C)C3 (centres unmarked) [Compound 32] |  |  | 327 | 390 | 330 |  | 60 | 
CCCCCCN(C)c1cc(O)cc2oc(=O)c3c(c12)CC(C)CC3 (centres unmarked) [Compound 7] | 6.80 | 6.54 |  |  |  |  |  | 
